# What was measured:
# [1] = tested on: various cancer cell lines; experiment: Cytotoxicity of FL118 in various cancer cell lines; assay type: cell-based; settings: 140 cell lines originating from various cancers; against most cancer cells
# MDA-MB-468 cells = experiment: In vivo drug efficacy, MDA-MB-468 xenograft model (sacituzumab / Example 9); design: species or system mice; settings: MDA-MB-468 model, Group 2, dose not given
Compound,IC50 [1] [nM],Tumor volume (MDA-MB-468 cells; Day 0) [mm^3],TGI (MDA-MB-468 cells; Day 21) [%],Tumor volume (MDA-MB-468 cells; Day 21) [mm^3]
"CCC1(O)C(=O)OCc2c1cc1n(c2=O)Cc2cc3cc4c(cc3nc2-1)OCO4 (stereo in doubt) [FL118, (4S)-4-ethyl-4-hydroxy-8,9-methylenedioxy-1H-pyrano[3′,4′:6,7]indolizino[1,2-b]quinoline-3,14(4H,12H)-dione]",< 100,–,–,–
sacituzumab: Trop-2 target antibody; control,–,200.20 ± 30.90,43.6,433.08±126.82

# Source: patent US20230270867A1, “CONJUGATE IN WHICH FL118 DRUG IS LINKED TO ACID-SENSITIVE LINKER, AND IMMUNOCONJUGATE USING SAME” (PINOTBIO, INC., priority 2020, published 2023)
